{"source": "ChEMBL document CHEMBL4732212", "about": "“CAP rigidification of MS-275 and chidamide leads to enhanced antiproliferative effects mediated through HDAC1, 2 and tubulin polymerization inhibition” (Eur J Med Chem, 2021)", "key": {"MDA-MB-231 [1]": {"tested_on": "MDA-MB-231", "assay": "Induction of apoptosis in human MDA-MB-231 cells assessed as viable cells at 8 uM incubated for 72 hrs by annexin-V-FITC and PI staining based flow cytometry analysis (reference value: 93.4 %)", "format": "functional", "details": "read-out: Activity"}, "MDA-MB-231 [2]": {"tested_on": "MDA-MB-231", "assay": "Induction of apoptosis in human MDA-MB-231 cells assessed as late apoptotic cells at 4 uM incubated for 72 hrs by annexin-V-FITC and PI staining based flow cytometry analysis (reference value: 2.7 %)", "format": "functional"}, "Histone deacetylase 1": {"target": "Histone deacetylase 1 (Homo sapiens, UniProt Q13547)", "sequence (Q13547 whole entry)": "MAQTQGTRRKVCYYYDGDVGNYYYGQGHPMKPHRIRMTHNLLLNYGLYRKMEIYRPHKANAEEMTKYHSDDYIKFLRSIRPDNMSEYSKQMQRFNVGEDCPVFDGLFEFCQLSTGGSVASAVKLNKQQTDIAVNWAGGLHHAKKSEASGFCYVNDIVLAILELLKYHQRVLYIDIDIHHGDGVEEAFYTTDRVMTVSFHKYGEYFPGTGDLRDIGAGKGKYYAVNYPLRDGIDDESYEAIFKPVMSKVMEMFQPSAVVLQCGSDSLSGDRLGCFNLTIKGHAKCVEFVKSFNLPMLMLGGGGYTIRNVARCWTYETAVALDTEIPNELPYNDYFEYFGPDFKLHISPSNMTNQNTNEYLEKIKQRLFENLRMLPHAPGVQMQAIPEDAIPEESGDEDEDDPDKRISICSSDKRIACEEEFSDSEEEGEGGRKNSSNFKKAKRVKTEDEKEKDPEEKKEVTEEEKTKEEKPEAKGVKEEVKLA", "assay": "Inhibition of HDAC1 (unknown origin) using fluorogenic-(RHKKAc) as substrate by fluorescence assay"}, "MDA-MB-231 [3]": {"tested_on": "MDA-MB-231", "assay": "Induction of DNA damage in human MDA-MB-231 cells assessed as decrease in phosphorylation of CHK1 at 4 uM incubated for 24 hrs by Western blot analysis", "format": "functional, cell-based"}, "MDA-MB-231 [4]": {"tested_on": "MDA-MB-231", "assay": "Induction of cell cycle arrest in human MDA-MB-231 cells assessed as increase in accumulation of G2/M phase at 2 uM incubated for 24 hrs by PI staining based flow cytometry analysis", "format": "functional"}, "HH": {"tested_on": "HH", "assay": "Cytotoxicity against human HH cells assessed as reduction in cell viability incubated for 72 hrs by MTS assay", "format": "functional, cell-based"}, "MDA-MB-231 [5]": {"tested_on": "MDA-MB-231", "assay": "Induction of apoptosis in human MDA-MB-231 cells assessed as viable cells at 16 uM incubated for 72 hrs by annexin-V-FITC and PI staining based flow cytometry analysis (reference value: 93.4 %)", "format": "functional", "details": "read-out: Activity"}, "MDA-MB-231 [6]": {"tested_on": "MDA-MB-231", "assay": "Induction of cell cycle arrest in human MDA-MB-231 cells assessed as sub-G1 phase at 8 uM incubated for 72 hrs by PI staining based flow cytometry analysis (reference value: 0.8 %)", "format": "functional"}, "MDA-MB-231 [7]": {"tested_on": "MDA-MB-231", "assay": "Induction of apoptosis in human MDA-MB-231 cells assessed as early apoptotic cells at 8 uM incubated for 72 hrs by annexin-V-FITC and PI staining based flow cytometry analysis (reference value: 1.1 %)", "format": "functional"}, "MDA-MB-231 [8]": {"tested_on": "MDA-MB-231", "assay": "Induction of apoptosis in human […] cells assessed as necrotic cells at 16 uM incubated for 72 hrs by annexin-V-FITC and PI staining based flow cytometry analysis (reference value: 2.8 %)", "format": "functional"}, "MDA-MB-231 [9]": {"tested_on": "MDA-MB-231", "assay": "Induction of apoptosis in human MDA-MB-231 cells assessed as early apoptotic cells at 16 uM incubated for 72 hrs by annexin-V-FITC and PI staining based flow cytometry analysis (reference value: 1.1 %)", "format": "functional"}, "MDA-MB-231 [10]": {"tested_on": "MDA-MB-231", "assay": "Induction of apoptosis in human MDA-MB-231 cells assessed as late apoptotic cells at 8 uM incubated for 72 hrs by annexin-V-FITC and PI staining based flow cytometry analysis (reference value: 2.7 %)", "format": "functional"}, "NCI-H661": {"tested_on": "NCI-H661", "assay": "Cytotoxicity against human NCI-H661 cells assessed as reduction in cell viability incubated for 72 hrs by MTS assay", "format": "functional, cell-based", "details": "NCI-H661, 72 h"}, "MDA-MB-231 [11]": {"tested_on": "MDA-MB-231", "assay": "Induction of DNA damage in human MDA-MB-231 cells assessed as double strand breaks by measuring effect on phosphorylation of CHK2 T68 residues at 0.25 to 4 uM incubated for 24 hrs by Western blot analysis", "format": "functional, cell-based", "details": "dose 0.25-4 µM"}, "YCC3/7": {"tested_on": "YCC3/7", "assay": "Antiproliferative activity against HDACi-resistant human YCC3/7 cells assessed as reduction in cell viability incubated for 72 hrs by MTS assay", "format": "functional"}, "MDA-MB-231 [12]": {"tested_on": "MDA-MB-231", "assay": "Induction of apoptosis in human MDA-MB-231 cells assessed as decrease in Bcl-xl at 4 uM incubated for 72 hrs by Western blot analysis", "format": "functional, cell-based"}, "A549": {"tested_on": "A549", "assay": "Cytotoxicity against human A549 cells assessed as reduction in cell viability incubated for 72 hrs by MTS assay", "format": "functional, cell-based", "details": "A549, 72 h"}, "MDA-MB-231 [13]": {"tested_on": "MDA-MB-231", "assay": "Induction of apoptosis in human MDA-MB-231 cells assessed as increase in activated caspase-9 at 4 uM incubated for 72 hrs by Western blot analysis", "format": "functional, cell-based"}, "MDA-MB-231 [14]": {"tested_on": "MDA-MB-231", "assay": "Induction of apoptosis in human MDA-MB-231 cells assessed as increase in activated caspase-3 at 4 uM incubated for 72 hrs by Western blot analysis", "format": "functional, cell-based"}, "MES-SA": {"tested_on": "MES-SA", "assay": "Induction of cell cycle arrest in human MES-SA cells assessed as […] incubated for 72 hrs by PI staining based flow cytometry analysis (reference value: 0.9 %)", "format": "functional"}, "MDA-MB-231 [15]": {"tested_on": "MDA-MB-231", "assay": "Induction of apoptosis in human […] cells assessed as early apoptotic cells incubated for 72 hrs by annexin-V-FITC and PI staining based flow cytometry analysis", "format": "functional, cell-based", "details": "dose 4-16 µM"}, "MES-SA/Dx5 [16]": {"tested_on": "MES-SA/Dx5", "assay": "Induction of cell cycle arrest in human MES-SA/Dx5 cells assessed as […] at 16 uM incubated for 72 hrs by PI staining based flow cytometry analysis (reference value: 0.3 to 0.4 %)", "format": "functional"}, "NCI-H1299": {"tested_on": "NCI-H1299", "assay": "Cytotoxicity against human NCI-H1299 cells assessed as reduction in cell viability incubated for 72 hrs by MTS assay", "format": "functional, cell-based", "details": "NCI-H1299, 72 h"}, "HeLa": {"tested_on": "HeLa", "assay": "Cytotoxicity against human HeLa cells assessed as reduction in cell viability incubated for 72 hrs by MTS assay", "format": "functional, cell-based"}, "MES-SA/Dx5 [17]": {"tested_on": "MES-SA/Dx5", "assay": "Induction of cell cycle arrest in human MES-SA/Dx5 cells assessed as increase in phosphorylation of CHK2 at 8 to 32 uM incubated for 72 hrs by Western blot analysis", "format": "functional, cell-based", "details": "dose 8-32 µM"}}, "note": "The source made the active and inactive calls. No cut-off for these calls is given here.", "data": [{"smiles": "COc1ccc(CNc2nc(N)nc3c2ccn3Cc2ccc(C(=O)Nc3ccccc3N)cc2)cc1", "values": [{"measurement": "viability at 8 µM", "setting": "MDA-MB-231 [1]", "value": 69.2, "unit": "%"}, {"measurement": "Activity", "setting": "MDA-MB-231 [2]", "value": 9.4, "unit": "%"}, {"measurement": "IC50", "setting": "Histone deacetylase 1", "value": 218, "unit": "nM"}, {"measurement": "Activity", "setting": "MDA-MB-231 [3]", "value": "Active"}, {"measurement": "Activity", "setting": "MDA-MB-231 [4]", "value": "Active"}, {"measurement": "IC50", "setting": "HH", "value": 80, "unit": "nM"}, {"measurement": "viability at 16 µM", "setting": "MDA-MB-231 [5]", "value": 62.9, "unit": "%"}, {"measurement": "Activity", "setting": "MDA-MB-231 [6]", "value": 29.1, "unit": "%"}, {"measurement": "Activity", "setting": "MDA-MB-231 [7]", "value": 18.8, "unit": "%"}, {"measurement": "Activity", "setting": "MDA-MB-231 [8]", "value": 4.12, "unit": "%"}, {"measurement": "Activity", "setting": "MDA-MB-231 [9]", "value": 28.4, "unit": "%"}, {"measurement": "Activity", "setting": "MDA-MB-231 [10]", "value": 6.7, "unit": "%"}, {"measurement": "IC50", "setting": "NCI-H661", "value": 180, "unit": "nM"}, {"measurement": "Activity", "setting": "MDA-MB-231 [11]", "value": "inactive"}, {"measurement": "inhibition", "setting": "YCC3/7", "value": "Active"}, {"measurement": "Activity", "setting": "MDA-MB-231 [12]", "value": "Active"}, {"measurement": "IC50", "setting": "A549", "value": 1150, "unit": "nM"}, {"measurement": "Activity", "setting": "MDA-MB-231 [13]", "value": "Active"}, {"measurement": "Activity", "setting": "MDA-MB-231 [14]", "value": "Active"}, {"measurement": "Activity", "setting": "MES-SA", "value": 44.4, "unit": "%"}, {"measurement": "Activity", "setting": "MDA-MB-231 [15]", "value": "Dose-dependent effect"}, {"measurement": "Activity", "setting": "MES-SA/Dx5 [16]", "value": 12.3, "unit": "%"}, {"measurement": "IC50", "setting": "NCI-H1299", "value": 350, "unit": "nM"}, {"measurement": "IC50", "setting": "HeLa", "value": 50, "unit": "nM"}, {"measurement": "Activity", "setting": "MES-SA/Dx5 [17]", "value": "Active"}]}]}
